# Measured values from ChEMBL document CHEMBL3867433, “Synthesis and antimicrobial activity of styryl/pyrrolyl/pyrazolyl sulfonylmethyl-1,3,4-oxadiazolyl amines and styryl/pyrrolyl/pyrazolyl sulfonylmethyl-1,3,4-thiadiazolyl amines” (2016).
# What was measured:
# Format in all cases: functional
# [1] = tested on: Aspergillus niger; experiment: Antifungal activity against Aspergillus niger assessed as inhibition of spore germination at 25 ug/well after 48 hrs by agar well diffusion method; conditions: read-out: DIZ
# [2] = tested on: Staphylococcus aureus; experiment: Antibacterial activity against Staphylococcus aureus at 25 ug/well after 24 hrs by agar well diffusion method; conditions: read-out: DIZ
# [3] = tested on: Klebsiella pneumoniae; experiment: Antibacterial activity against Klebsiella pneumoniae at 100 ug/well after 24 hrs by agar well diffusion method; conditions: read-out: DIZ
# [4] = Antifungal activity against Penicillium chrysogenum assessed as inhibition of spore germination at 100 ug/well after 48 hrs by agar well diffusion method
# [5] = tested on: Pseudomonas aeruginosa; experiment: Antibacterial activity against Pseudomonas aeruginosa at 50 ug/well after 24 hrs by agar well diffusion method; conditions: read-out: DIZ
# [6] = Antifungal activity against Penicillium chrysogenum assessed as inhibition of spore germination at 25 ug/well after 48 hrs by agar well diffusion method
# [7] = Antifungal activity against Penicillium chrysogenum assessed as inhibition of spore germination at 50 ug/well after 48 hrs by agar well diffusion method
# [8] = tested on: Staphylococcus aureus; experiment: Antibacterial activity against Staphylococcus aureus at 12.5 ug/well after 24 hrs by agar well diffusion method; conditions: read-out: DIZ
# [9] = tested on: Pseudomonas aeruginosa; experiment: Antibacterial activity against Pseudomonas aeruginosa at 100 ug/well after 24 hrs by agar well diffusion method; conditions: read-out: DIZ
# [10] = tested on: Bacillus subtilis; experiment: Antibacterial activity against Bacillus subtilis at 25 ug/well after 24 hrs by agar well diffusion method; conditions: read-out: DIZ
# [11] = tested on: Klebsiella pneumoniae; experiment: Antibacterial activity against Klebsiella pneumoniae at 25 ug/well after 24 hrs by agar well diffusion method; conditions: read-out: DIZ
# [12] = tested on: Pseudomonas aeruginosa; experiment: Antibacterial activity against Pseudomonas aeruginosa at 12.5 ug/well after 24 hrs by agar well diffusion method; conditions: read-out: DIZ
# [13] = tested on: Aspergillus niger; experiment: Antifungal activity against Aspergillus niger assessed as inhibition of spore germination at 12.5 ug/well after 48 hrs by agar well diffusion method; conditions: read-out: DIZ
# [14] = tested on: Aspergillus niger; experiment: Antifungal activity against Aspergillus niger assessed as inhibition of spore germination at 100 ug/well after 48 hrs by agar well diffusion method; conditions: read-out: DIZ
# [15] = tested on: Aspergillus niger; experiment: Antifungal activity against Aspergillus niger assessed as inhibition of spore germination at 50 ug/well after 48 hrs by agar well diffusion method; conditions: read-out: DIZ
# [16] = tested on: Bacillus subtilis; experiment: Antibacterial activity against Bacillus subtilis at 12.5 ug/well after 24 hrs by agar well diffusion method; conditions: read-out: DIZ
# [17] = tested on: Bacillus subtilis; experiment: Antibacterial activity against Bacillus subtilis at 100 ug/well after 24 hrs by agar well diffusion method; conditions: read-out: DIZ
# [18] = tested on: Klebsiella pneumoniae; experiment: Antibacterial activity against Klebsiella pneumoniae at 12.5 ug/well after 24 hrs by agar well diffusion method; conditions: read-out: DIZ
# [19] = tested on: Klebsiella pneumoniae; experiment: Antibacterial activity against Klebsiella pneumoniae at 50 ug/well after 24 hrs by agar well diffusion method; conditions: read-out: DIZ
# [20] = tested on: Bacillus subtilis; experiment: Antibacterial activity against Bacillus subtilis at 50 ug/well after 24 hrs by agar well diffusion method; conditions: read-out: DIZ
# [21] = tested on: Pseudomonas aeruginosa; experiment: Antibacterial activity against Pseudomonas aeruginosa at 25 ug/well after 24 hrs by agar well diffusion method; conditions: read-out: DIZ
# [22] = tested on: Staphylococcus aureus; experiment: Antibacterial activity against Staphylococcus aureus at 100 ug/well after 24 hrs by agar well diffusion method; conditions: read-out: DIZ
# [23] = tested on: Staphylococcus aureus; experiment: Antibacterial activity against Staphylococcus aureus at 50 ug/well after 24 hrs by agar well diffusion method; conditions: read-out: DIZ
# [24] = Antifungal activity against Penicillium chrysogenum assessed as inhibition of spore germination at 12.5 ug/well after 48 hrs by agar well diffusion method
Structure (SMILES),zone of inhibition at 25 µg/disc [1] [mm],zone of inhibition at 100 µg/disc [3] [mm],inhibition zone (IZ) [4] [mm],zone of inhibition at 50 µg/disc [5] [mm],inhibition zone (IZ) [6] [mm],inhibition zone (IZ) [7] [mm],zone of inhibition at 100 µg/disc [9] [mm],zone of inhibition at 25 µg/disc [10] [mm],zone of inhibition at 25 µg/disc [11] [mm],zone of inhibition at 12.5 µg/disc [12] [mm],zone of inhibition at 100 µg/disc [14] [mm],zone of inhibition at 50 µg/disc [15] [mm],zone of inhibition at 12.5 µg/disc [16] [mm],zone of inhibition at 100 µg/disc [17] [mm],zone of inhibition at 12.5 µg/disc [18] [mm],zone of inhibition at 50 µg/disc [19] [mm],zone of inhibition at 50 µg/disc [20] [mm],zone of inhibition at 25 µg/disc [21] [mm],zone of inhibition at 100 µg/disc [22] [mm],inhibition zone (IZ) [24] [mm],other results
Cc1ccc(-c2c[nH]cc2S(=O)(=O)Cc2nnc(N)s2)cc1,11,26,28,21,24,26,23,19,22,17,15,13,18,22,20,24,20,19,22,22,zone of inhibition at 25 µg/disc [2]: 17 mm; zone of inhibition at 12.5 µg/disc [8]: 15 mm; zone of inhibition at 12.5 µg/disc [13]: 9 mm; zone of inhibition at 50 µg/disc [23]: 19 mm
Nc1nnc(CS(=O)(=O)/C=C\c2ccccc2)o1,11,21,17,18,13,15,20,13,17,14,15,13,12,16,15,19,14,16,18,11,zone of inhibition at 25 µg/disc [2]: 13 mm; zone of inhibition at 12.5 µg/disc [8]: 11 mm; zone of inhibition at 12.5 µg/disc [13]: 9 mm; zone of inhibition at 50 µg/disc [23]: 15 mm
Cc1ccc(C2CNN=C2S(=O)(=O)Cc2nnc(N)s2)cc1 (stereo not given),–,–,11,–,–,–,–,–,–,–,8,4,–,–,–,–,–,–,–,–,–
Cc1ccc(/C=C\S(=O)(=O)Cc2nnc(N)o2)cc1,10,17,16,16,12,14,18,9,13,12,13,11,8,14,11,15,11,14,14,10,zone of inhibition at 12.5 µg/disc [13]: 8 mm; zone of inhibition at 50 µg/disc [23]: 12 mm
Nc1nnc(CS(=O)(=O)c2c[nH]cc2-c2ccc(Cl)cc2)o1,10,14,18,13,14,16,15,–,10,9,14,9,–,13,8,12,11,11,12,12,zone of inhibition at 25 µg/disc [2]: 8 mm; zone of inhibition at 12.5 µg/disc [8]: 7 mm; zone of inhibition at 50 µg/disc [23]: 9 mm
Nc1nnc(CS(=O)(=O)c2n[nH]cc2-c2ccc(Cl)cc2)o1,9,17,17,16,13,15,18,9,13,12,13,11,8,13,11,15,12,14,15,12,zone of inhibition at 25 µg/disc [2]: 10 mm; zone of inhibition at 12.5 µg/disc [8]: 8 mm; zone of inhibition at 50 µg/disc [23]: 12 mm
Cc1ccc(-c2c[nH]nc2S(=O)(=O)Cc2nnc(N)o2)cc1,8,14,14,12,–,11,14,7,–,9,10,10,6,11,–,12,9,10,12,–,–
Cc1ccc(-c2c[nH]nc2S(=O)(=O)Cc2nnc(N)s2)cc1,23,28,34,24,30,32,26,22,24,20,27,25,21,25,22,26,23,22,20,28,zone of inhibition at 25 µg/disc [2]: 17 mm; zone of inhibition at 12.5 µg/disc [8]: 16 mm; zone of inhibition at 12.5 µg/disc [13]: 21 mm; zone of inhibition at 50 µg/disc [23]: 18 mm
Nc1nnc(CS(=O)(=O)c2n[nH]cc2-c2ccccc2)o1,9,16,16,15,12,14,17,9,12,11,13,11,7,15,10,14,11,13,14,–,zone of inhibition at 50 µg/disc [23]: 10 mm
Nc1nnc(CS(=O)(=O)c2c[nH]cc2-c2ccccc2)o1,8,13,16,12,12,14,14,–,–,8,12,10,–,12,–,11,–,10,11,11,–
Nc1nnc(CS(=O)(=O)C2=NNCC2c2ccccc2)s1 (stereo not given),–,–,12,–,–,–,–,–,–,–,9,7,–,–,–,–,–,–,–,–,–
Cc1ccc(-c2c[nH]cc2S(=O)(=O)Cc2nnc(N)o2)cc1,–,12,14,10,10,12,11,–,–,–,9,7,–,10,–,–,–,–,10,8,–
Nc1nnc(CS(=O)(=O)C2=NNCC2c2ccc(Cl)cc2)s1 (stereo not given),–,–,13,–,–,10,–,–,–,–,11,10,–,–,–,–,–,–,–,–,–
